Assay results as given in the kinase profiling compilation of Christmann-Franck et al. (2016).

How the values were obtained:
Test in all cases: radiometric filter-binding kinase assay
[1] = target: AKT1 (human) (UniProt P31749); conditions: compound 10.0 µM; ATP 100 µM
[2] = target: CDK2 CCNA2 (human) (UniProt P24941+P20248); conditions: compound 10.0 µM; ATP 100 µM
[3] = target: CHEK1 (human) (UniProt O14757); conditions: compound 10.0 µM; ATP 100 µM
[4] = target: CSK (human) (UniProt P41240); conditions: ATP 100 µM; for residual activity: compound 10.0 µM
[5] = system: CSNK1A1 (rat); conditions: ATP 100 µM, accession and sequence are those of the human protein; for residual activity: compound 10.0 µM
[6] = target: CSNK2A1 or CSNK2A2 (human) (UniProt P19784+P68400); conditions: compound 10.0 µM; ATP 100 µM
[7] = system: DYRK1A (rat); conditions: compound 10.0 µM; ATP 100 µM; accession and sequence are those of the human protein
[8] = target: GSK3B (human) (UniProt P49841); conditions: compound 10.0 µM; ATP 100 µM
Sequence of GSK3B (human) (P49841 whole entry, looked up): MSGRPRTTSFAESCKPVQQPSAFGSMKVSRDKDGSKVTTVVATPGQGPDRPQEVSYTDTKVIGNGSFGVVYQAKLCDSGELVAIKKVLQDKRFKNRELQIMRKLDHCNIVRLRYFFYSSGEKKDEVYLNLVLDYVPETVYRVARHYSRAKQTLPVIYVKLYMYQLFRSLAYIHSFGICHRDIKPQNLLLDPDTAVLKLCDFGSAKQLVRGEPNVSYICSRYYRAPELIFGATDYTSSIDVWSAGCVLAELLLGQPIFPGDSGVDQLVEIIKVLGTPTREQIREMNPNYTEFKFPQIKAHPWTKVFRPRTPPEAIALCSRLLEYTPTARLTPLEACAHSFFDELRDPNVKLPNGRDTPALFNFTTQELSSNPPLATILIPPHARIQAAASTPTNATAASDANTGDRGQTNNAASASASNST

[9] = target: LCK (human) (UniProt P06239); conditions: compound 10.0 µM; ATP 100 µM
[10] = system: MAP2K1 (rabbit); conditions: compound 10.0 µM; ATP 100 µM; accession and sequence are those of the human protein
[11] = system: MAPK1 (mouse); conditions: compound 10.0 µM; ATP 100 µM; accession and sequence are those of the human protein
[12] = target: MAPK11 (human) (UniProt Q15759); conditions: compound 10.0 µM; ATP 100 µM
Sequence of MAPK11 (human) (Q15759 whole entry, looked up): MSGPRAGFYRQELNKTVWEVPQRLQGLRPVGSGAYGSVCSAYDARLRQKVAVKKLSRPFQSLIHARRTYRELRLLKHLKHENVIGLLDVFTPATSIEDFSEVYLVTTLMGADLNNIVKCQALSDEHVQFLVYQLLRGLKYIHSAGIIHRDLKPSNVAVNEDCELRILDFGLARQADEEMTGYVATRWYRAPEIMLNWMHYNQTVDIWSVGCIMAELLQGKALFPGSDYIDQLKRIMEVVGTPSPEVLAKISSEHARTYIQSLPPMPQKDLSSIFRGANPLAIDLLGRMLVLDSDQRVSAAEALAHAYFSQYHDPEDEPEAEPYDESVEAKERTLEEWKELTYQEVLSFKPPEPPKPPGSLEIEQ

[13] = target: MAPK13 (human) (UniProt O15264); conditions: compound 10.0 µM; ATP 100 µM
[14] = target: MAPK14 (human) (UniProt Q16539); conditions: compound 10.0 µM; ATP 100 µM
[15] = target: MAPK8 (human) (UniProt P45983); conditions: compound 10.0 µM; ATP 100 µM
[16] = target: MAPKAPK2 (human) (UniProt P49137); conditions: compound 10.0 µM; ATP 100 µM
[17] = target: MAPKAPK5 (human) (UniProt Q8IW41); conditions: compound 10.0 µM; ATP 100 µM
[18] = target: PDPK1 (human) (UniProt O15530); conditions: compound 10.0 µM; ATP 100 µM
Sequence of PDPK1 (human) (O15530 whole entry, looked up): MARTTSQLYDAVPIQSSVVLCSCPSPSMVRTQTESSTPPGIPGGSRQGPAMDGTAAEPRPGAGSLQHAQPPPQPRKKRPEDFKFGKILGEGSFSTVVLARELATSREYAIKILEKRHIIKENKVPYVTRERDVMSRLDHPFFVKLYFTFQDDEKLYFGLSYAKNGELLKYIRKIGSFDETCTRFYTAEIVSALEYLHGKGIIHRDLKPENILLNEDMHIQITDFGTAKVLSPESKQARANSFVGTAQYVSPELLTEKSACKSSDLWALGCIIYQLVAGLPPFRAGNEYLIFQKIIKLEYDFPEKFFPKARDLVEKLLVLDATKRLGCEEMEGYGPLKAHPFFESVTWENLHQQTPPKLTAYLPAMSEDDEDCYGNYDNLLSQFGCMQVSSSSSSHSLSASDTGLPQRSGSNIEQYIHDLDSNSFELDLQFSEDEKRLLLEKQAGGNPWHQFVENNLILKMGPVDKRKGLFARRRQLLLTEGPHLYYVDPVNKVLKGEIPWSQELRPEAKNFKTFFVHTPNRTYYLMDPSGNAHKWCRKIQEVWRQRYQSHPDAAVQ

[19] = system: PHKG1 or PHKG2 (rabbit); conditions: compound 10.0 µM; ATP 100 µM; accession and sequence are those of the human protein
[20] = system: PRKAA1 or PRKAA2 (rat); conditions: compound 10.0 µM; ATP 100 µM; accession and sequence are those of the human protein
[21] = system: PRKACA or PRKACB (cow); conditions: compound 10.0 µM; accession and sequence are those of the human protein
[22] = target: PRKCA (human) (UniProt P17252); conditions: compound 10.0 µM; ATP 100 µM
[23] = system: ROCK2 (rat); conditions: compound 10.0 µM; ATP 100 µM; accession and sequence are those of the human protein
[24] = system: RPS6KA1 (rat); conditions: compound 10.0 µM; ATP 100 µM; accession and sequence are those of the human protein
[25] = target: RPS6KA5 KD1 KD2 (human) (UniProt O75582); conditions: compound 10.0 µM; ATP 100 µM
Sequence of RPS6KA5 KD1 KD2 (human) (O75582 whole entry, looked up): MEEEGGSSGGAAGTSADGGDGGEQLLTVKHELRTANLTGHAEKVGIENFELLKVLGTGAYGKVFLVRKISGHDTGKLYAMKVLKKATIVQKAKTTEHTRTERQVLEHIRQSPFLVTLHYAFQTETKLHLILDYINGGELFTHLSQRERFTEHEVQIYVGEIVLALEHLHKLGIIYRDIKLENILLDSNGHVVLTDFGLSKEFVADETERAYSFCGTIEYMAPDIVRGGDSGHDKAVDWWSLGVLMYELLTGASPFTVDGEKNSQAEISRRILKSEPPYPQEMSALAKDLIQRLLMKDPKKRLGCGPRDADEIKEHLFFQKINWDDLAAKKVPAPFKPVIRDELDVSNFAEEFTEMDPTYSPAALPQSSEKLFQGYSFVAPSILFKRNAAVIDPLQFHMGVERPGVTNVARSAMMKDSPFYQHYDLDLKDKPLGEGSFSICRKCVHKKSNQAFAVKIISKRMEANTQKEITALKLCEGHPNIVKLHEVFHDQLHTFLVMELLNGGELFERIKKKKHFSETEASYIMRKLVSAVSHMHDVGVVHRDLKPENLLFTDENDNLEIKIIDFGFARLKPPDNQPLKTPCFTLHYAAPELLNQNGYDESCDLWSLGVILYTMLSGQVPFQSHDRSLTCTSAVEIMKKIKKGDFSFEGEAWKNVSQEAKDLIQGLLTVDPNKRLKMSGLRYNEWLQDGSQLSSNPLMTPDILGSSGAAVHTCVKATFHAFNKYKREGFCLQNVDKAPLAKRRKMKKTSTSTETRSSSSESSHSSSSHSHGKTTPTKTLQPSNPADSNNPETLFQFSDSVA

[26] = system: RPS6KB1 (human), P23443 [T412E]; conditions: compound 10.0 µM; ATP 100 µM
Sequence of RPS6KB1 (human), P23443 [T412E] (P23443 whole entry T412E, looked up): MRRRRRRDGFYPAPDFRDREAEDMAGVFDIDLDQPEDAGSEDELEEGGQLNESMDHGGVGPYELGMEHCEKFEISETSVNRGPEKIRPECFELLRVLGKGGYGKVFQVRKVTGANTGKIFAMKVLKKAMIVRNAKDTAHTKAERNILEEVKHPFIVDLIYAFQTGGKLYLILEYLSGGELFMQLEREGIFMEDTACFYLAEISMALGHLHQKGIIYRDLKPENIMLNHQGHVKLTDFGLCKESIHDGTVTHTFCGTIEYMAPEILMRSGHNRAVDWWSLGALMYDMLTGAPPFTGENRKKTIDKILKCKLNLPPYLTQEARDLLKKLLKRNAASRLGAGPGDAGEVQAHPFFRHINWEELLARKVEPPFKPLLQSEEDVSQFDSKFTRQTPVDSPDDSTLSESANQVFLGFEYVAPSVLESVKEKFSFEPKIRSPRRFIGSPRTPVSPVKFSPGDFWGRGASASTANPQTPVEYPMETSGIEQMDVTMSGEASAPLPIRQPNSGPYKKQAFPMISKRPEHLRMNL

[27] = system: SGK1 (human), O00141 [S422D]; conditions: compound 10.0 µM; ATP 100 µM
[28] = target: MAPK12 (human) (UniProt P53778); conditions: compound 10.0 µM; ATP 100 µM

Sequence of CHEK1 (human) (O14757 whole entry, looked up): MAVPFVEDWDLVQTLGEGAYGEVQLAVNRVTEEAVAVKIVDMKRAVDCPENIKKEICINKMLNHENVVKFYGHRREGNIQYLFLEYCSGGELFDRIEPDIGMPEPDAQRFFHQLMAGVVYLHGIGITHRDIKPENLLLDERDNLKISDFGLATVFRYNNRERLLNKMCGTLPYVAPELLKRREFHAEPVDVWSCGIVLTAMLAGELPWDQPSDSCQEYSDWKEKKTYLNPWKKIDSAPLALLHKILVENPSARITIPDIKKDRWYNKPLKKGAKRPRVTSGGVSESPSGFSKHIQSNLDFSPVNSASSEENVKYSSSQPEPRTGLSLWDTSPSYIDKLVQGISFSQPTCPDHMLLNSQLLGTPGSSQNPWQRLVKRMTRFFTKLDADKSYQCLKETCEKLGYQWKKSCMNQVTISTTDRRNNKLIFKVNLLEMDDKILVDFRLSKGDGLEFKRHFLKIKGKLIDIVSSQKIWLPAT
Sequence of AKT1 (human) (P31749 whole entry, looked up): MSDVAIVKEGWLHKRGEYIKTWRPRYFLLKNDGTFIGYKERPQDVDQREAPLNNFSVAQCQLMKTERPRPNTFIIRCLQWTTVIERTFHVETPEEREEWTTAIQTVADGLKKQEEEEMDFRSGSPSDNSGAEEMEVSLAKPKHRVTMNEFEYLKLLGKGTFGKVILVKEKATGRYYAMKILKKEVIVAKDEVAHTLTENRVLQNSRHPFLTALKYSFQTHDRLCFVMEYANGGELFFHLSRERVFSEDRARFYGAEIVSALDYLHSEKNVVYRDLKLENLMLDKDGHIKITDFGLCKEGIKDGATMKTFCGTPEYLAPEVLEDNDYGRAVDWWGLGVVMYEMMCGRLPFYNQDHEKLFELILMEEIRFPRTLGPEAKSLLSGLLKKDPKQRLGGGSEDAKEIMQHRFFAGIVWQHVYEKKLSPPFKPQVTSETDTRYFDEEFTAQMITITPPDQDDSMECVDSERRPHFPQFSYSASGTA
Sequence of CDK2 CCNA2 (human) (P20248 whole entry, looked up, other chains not shown): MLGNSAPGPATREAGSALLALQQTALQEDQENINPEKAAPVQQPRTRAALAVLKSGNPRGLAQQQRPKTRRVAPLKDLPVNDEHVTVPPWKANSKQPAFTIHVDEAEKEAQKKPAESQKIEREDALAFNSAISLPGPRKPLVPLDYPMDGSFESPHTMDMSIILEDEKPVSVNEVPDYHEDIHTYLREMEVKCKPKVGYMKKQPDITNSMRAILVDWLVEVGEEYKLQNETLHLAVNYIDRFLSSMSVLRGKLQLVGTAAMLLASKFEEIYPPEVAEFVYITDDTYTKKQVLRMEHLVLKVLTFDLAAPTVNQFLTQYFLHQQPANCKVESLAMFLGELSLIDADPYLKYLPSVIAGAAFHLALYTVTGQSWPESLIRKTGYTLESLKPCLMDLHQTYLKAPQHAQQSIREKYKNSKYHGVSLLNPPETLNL

SMILES | residual activity [1] | residual activity [2] | residual activity [3] | residual activity [4] | residual activity [6] | residual activity [8] | residual activity [10] | residual activity [11] | residual activity [12] | residual activity [15] | residual activity [16] | residual activity [17] | residual activity [18] | residual activity [19] | residual activity [20] | residual activity [22] | residual activity [23] | residual activity [25] | residual activity [26] | residual activity [27] | further results
Cc1ccc(-c2nn(C(C)(C)C)c3ncnc(N)c23)cc1 | 97% | 75% | 91% | 3% | 96% | 86% | 52% | 75% | 22% | 98% | 96% | 85% | 97% | 70% | 93% | 80% | 65% | 55% | 43% | 94% | IC50 [4]: 0.52 µM; residual activity [5]: 8%; residual activity [7]: 101%; residual activity [9]: 0%; residual activity [13]: 102%; residual activity [14]: 13%; residual activity [21]: 76%; residual activity [24]: 69%
CC[C@@H](CO)Nc1nc(NCc2ccccc2)c2ncn(C(C)C)c2n1 | 89% | – | 95% | 109% | 101% | 106% | 93% | 81% | 104% | 91% | 85% | 87% | 104% | 80% | 95% | 101% | 94% | 92% | 94% | 104% | residual activity [9]: 97%; residual activity [13]: 106%; residual activity [21]: 93%; residual activity [24]: 69%
O=C1Cc2c([nH]c3ccc([N+](=O)[O-])cc23)-c2ccccc2N1 | 61% | 5% | – | 90% | 67% | 4% | 96% | 64% | 64% | 89% | 40% | 78% | 41% | 77% | 36% | 93% | 45% | 98% | 64% | 42% | residual activity [5]: 86%; residual activity [7]: 102%; residual activity [9]: 19%; residual activity [28]: 55%; residual activity [14]: 79%; residual activity [21]: 79%
CC(C)(C)n1nc(-c2ccc(Cl)cc2)c2c(N)ncnc21 | 77% | 68% | 93% | 3% | 90% | 113% | 55% | 61% | 26% | 98% | 106% | 85% | 99% | 93% | 84% | 66% | 75% | 57% | 70% | 111% | residual activity [5]: 6%; residual activity [7]: 94%; residual activity [28]: 90%; residual activity [13]: 96%; residual activity [14]: 21%; residual activity [21]: 74%; residual activity [24]: 114%
O=C1Cc2c([nH]c3ccc(Br)cc23)-c2ccccc2N1 | 86% | 22% | 65% | 86% | 99% | 6% | 103% | 70% | 108% | 128% | 110% | 83% | 52% | 110% | 72% | 120% | 53% | 92% | 117% | 92% | residual activity [5]: 99%; residual activity [7]: 116%; residual activity [28]: 87%; residual activity [13]: 104%; residual activity [21]: 109%; residual activity [24]: 86%
Nc1ncnc2c1cnn2-c1ccccc1 | 108% | 84% | 96% | 96% | 76% | 99% | 89% | 92% | 84% | 99% | 98% | 97% | 82% | 99% | 94% | 100% | 93% | 93% | 93% | 94% | IC50 [5]: 9.9 µM; residual activity [5]: 54%; residual activity [7]: 60%; residual activity [28]: 83%; residual activity [13]: 95%; residual activity [14]: 100%; residual activity [24]: 115%
